Experimental data from EP0195147A1, “Trihalo(amine)gold(III) complexes” (ENGELHARD CORPORATION, priority 1985, dated 1986).
Where “and” joins values, the source holds several entries; their conditions need not be identical. Equal values may be shown once.

Experiments:
S 180 ascites = assay: Anti-tumor screening against S 180 ascites (% increase in life span); type: in vivo, female CFW Swiss mice; settings: for Survivors: survivors on day of evaluation (twice the mean life span of the control)
Experimental: The above prepared compounds were evaluated against §180 ascites in female CFW Swiss mice. The mice were weighed (average weight: 20 g), placed into cages (six mice to a cage) and on day zero the mice were inoculated with 0.2 ml of a freshly prepared saline suspension (0.15 M NaCl) containing 1 x 10^7 tumor cells/ml or a total of 2 x 10^6 cells. This inoculum was freshly prepared using "transfer" mice which had been injected with tumor cells the previous week; it was obtained via the following steps: (1) the removal of cells from the peritoneal cavity of the sacrificed transfer mouse, (2) alternate centrifugation and washing operations (2-3 times with cold saline) to remove blood and other components, and (3) dilution of the volume of the packed cell with saline (1:3). A final centrifugation was carried out at 1000 RPM over a two minute period. A cell count was made on a 2,000-fold dilution of this 1:3 suspension by means of a Coulter Counter. A final dilution to […] cells/ml was made based on the average count.
On day 1, solutions of the test compounds were prepared and each mouse in a set of six were injected with the same test compound at the same dosage. The doses were based on the average weight of the animals (cage weight). Also, beginning on day 1 two controls were employed containing six mice per control; • (1) Normal Control: This consisted solely of the carrier or diluent used in combination with the test compound; and • (2) Positive Control: This consisted solely of the known anti-tumor agent cis-[Pt(NH3)2C12] (Cisplatin) in saline (8 mg/kg) to test the response of the
The effectiveness of a test compound was measured in terms of the % increase in life span (%ILS) of the test mice relative to the Normal Control (Calculated from the day of tumor inoculation, ie., day zero). To standardize the test data and permit intercomparisons, the day of evaluation was arbitrarily taken as that day corresponding to twice the mean life span (or average day of death) of the control. This established a practical upper limit of 100% on the %ILS attainable. For calculation purposes the survivors on the day of evaluation were considered to have died on that day. The %ILS was calculated as follows: [formula] ILS values in excess of 50% were interpreted as being indicative of anti-tumor activity, whereas, values in excess of 75% indicated excellent activity.
The products of Examples 1, 4, 10 and 11 were administered in a freshly prepared 1% sodium bicarbonate solution; the remaining test compounds were administered as slurries in 0.5% "Klucel" (hydroxypropylcellulose). All products (I) are insoluble in water.

[1] = Therapeutic indices, ED90 and LD50 by the method of Miller and Tainter; design: species or system Swiss white mice; settings: mouse, in vivo; for selectivity ratio: LD50/ED90, read-out: Therapeutic Index; for LD50: lethal dose to 50% of the animals
Experimental: The therapeutic indices for the present compounds (I), their effective dose (ED90) and lethal dose (LD50) were determined according to the method of Miller and Tainter (Reported by R. A. Turner, "Screening Methods in Pharmacology", Academic Press, New York, pages 61-62 (1976)).

Solubility = type: physicochemical; settings: 1% sodium bicarbonate solution; read-out: soluble in 1% sodium bicarbonate solution to the extent of
[2] = tested on: implanted Sarcoma 180 tumors; settings: value attributed to commercially available Cisplatin; cited from earlier work

Q: With [Cl][Au-]([Cl])([Cl])[n+]1ccccc1 [Ex. 7, trichloro(pyridine)gold(III)] as the molecule, how does the Survivors (S 180 ascites; Dose 10 mg/kg) read?
A: The Survivors was 3 of 6.

Q: What about the Survivors (S 180 ascites; Dose 20 mg/kg) of the same molecule?
A: Its Survivors is 2 of 6.

Q: What about the Survivors (S 180 ascites; Dose 40 mg/kg) of the same molecule?
A: Its Survivors is 3 of 6.

Q: And the Survivors (S 180 ascites; Dose 80 mg/kg)?
A: The Survivors was 2 of 6.

Q: What about the Survivors (S 180 ascites; Dose 160 mg/kg) of the same molecule?
A: The Survivors was 0 of 6.

Q: And the Survivors (S 180 ascites; Dose 320 mg/kg)?
A: The Survivors was 0 of 6.

Q: Which “anti-tumor activity (in words)” value (S 180 ascites; 50% ILS criterion, all doses tested) does the source give for O=C(O)Cc1ccc[n+]([Au-]([Cl])([Cl])[Cl])c1 [trichloro-(3-pyridyacetic acid)gold(III)] here?
A: Its value is “pronounced anti-tumor effect”.

Q: What does the source list for Cn1cc[n+]([Au-]([Cl])([Cl])[Cl])c1 [Ex. 2, Trichloro(N-Methylimidazole)Gold(III)]?
A: Survivors (S 180 ascites; Dose 5 mg/kg): 0 of 6; Survivors (S 180 ascites; Dose 10 mg/kg): 0 of 6; Survivors (S 180 ascites; Dose 20 mg/kg): 1 of 6; Survivors (S 180 ascites; Dose 40 mg/kg): 4 of 6; Survivors (S 180 ascites; Dose 80 mg/kg): 1 of 6; Survivors (S 180 ascites; Dose 160 mg/kg): 0 of 6; anti-tumor activity (in words) (S 180 ascites; within the 20-40 mg/kg range): decidedly active; selectivity ratio [1]: 2.8; LD50 [1]: 90 mg/kg

Q: With Cn1cc[n+]([Au-]([Br])([Br])[Br])c1 [Ex. 9, Tribromo(N-Methylimidazole)Gold(III)] as the molecule, how does the Survivors (S 180 ascites; Dose 10 mg/kg) read?
A: The Survivors was 0 of 6.

Q: And the Survivors (S 180 ascites; Dose 20 mg/kg)?
A: Its Survivors is 4 of 6.

Q: And the Survivors (S 180 ascites; Dose 40 mg/kg)?
A: The Survivors was 3 of 6.

Q: What about the Survivors (S 180 ascites; Dose 80 mg/kg) of the same molecule?
A: Its Survivors is 1 of 6.

Q: And the Survivors (S 180 ascites; Dose 160 mg/kg)?
A: The Survivors was 0 of 6.

Q: And the Survivors (S 180 ascites; Dose 320 mg/kg)?
A: Its Survivors is 0 of 6.

Q: What about the selectivity ratio [1] of the same molecule?
A: Its selectivity ratio is 2.

Q: What about the LD50 [1] of the same molecule?
A: The LD50 was 85 mg/kg.

Q: For O=C(O)Cc1ccc[n+]([Au-]([Cl])([Cl])[Cl])c1 [Ex. 4, trichloro-(3-pyridyacetic acid)gold(III)], which Survivors (S 180 ascites; Dose 10 mg/kg) is on record?
A: The Survivors was 0 of 6.

Q: What about the Survivors (S 180 ascites; Dose 20 mg/kg) of the same molecule?
A: The Survivors was 0 of 6.

Q: What about the Survivors (S 180 ascites; Dose 40 mg/kg) of the same molecule?
A: The Survivors was 1 of 6.

Q: What about the Survivors (S 180 ascites; Dose 80 mg/kg) of the same molecule?
A: The Survivors was 1 of 6.

Q: And the Survivors (S 180 ascites; Dose 160 mg/kg)?
A: The Survivors was 0 of 6.

Q: What about the Survivors (S 180 ascites; Dose 320 mg/kg) of the same molecule?
A: The Survivors was 0 of 6.

Q: And the selectivity ratio [1]?
A: The selectivity ratio was 1.8.

Q: What about the LD50 [1] of the same molecule?
A: Its LD50 is 150 mg/kg.

Q: What about the solubility (Solubility) of the same molecule?
A: Its solubility is 12.8 mg/mL.

Q: With CC(=O)c1ccc[n+]([Au-]([Cl])([Cl])[Cl])c1 [Ex. 3, trichloro(3-acetylpyridine)gold(III)] as the molecule, how does the Survivors (S 180 ascites; Dose 10 mg/kg) read?
A: Its Survivors is 0 of 6.

Q: What about the Survivors (S 180 ascites; Dose 20 mg/kg) of the same molecule?
A: Its Survivors is 1 of 6.

Q: And the Survivors (S 180 ascites; Dose 40 mg/kg)?
A: The Survivors was 5 of 6.

Q: And the Survivors (S 180 ascites; Dose 80 mg/kg)?
A: The Survivors was 4 of 6.

Q: What about the Survivors (S 180 ascites; Dose 160 mg/kg) of the same molecule?
A: Its Survivors is 0 of 6.

Q: What about the Survivors (S 180 ascites; Dose 320 mg/kg) of the same molecule?
A: Its Survivors is 0 of 6.

Q: What about the selectivity ratio [1] of the same molecule?
A: The selectivity ratio was 4.5.

Q: What about the LD50 [1] of the same molecule?
A: The LD50 was 140 mg/kg.

Q: Which Survivors (S 180 ascites; Dose 10 mg/kg) does the source give for O=C(O)Cc1ccc[n+]([Au-]([Br])([Br])[Br])c1 [Ex. 11, tribromo(3-pyridylacetic acid)gold(III)] here?
A: Its Survivors is 0 of 6.

Q: What about the Survivors (S 180 ascites; Dose 20 mg/kg) of the same molecule?
A: Its Survivors is 0 of 6.

Q: What about the Survivors (S 180 ascites; Dose 40 mg/kg) of the same molecule?
A: Its Survivors is 0 of 6.

Q: What about the Survivors (S 180 ascites; Dose 80 mg/kg) of the same molecule?
A: The Survivors was 1 of 6.

Q: And the Survivors (S 180 ascites; Dose 160 mg/kg)?
A: The Survivors was 0 of 6.

Q: And the Survivors (S 180 ascites; Dose 320 mg/kg)?
A: The Survivors was 0 of 6.

Q: And the solubility (Solubility)?
A: Its solubility is 12.8 mg/mL.

Q: Which “Positive Control Survivors” value (S 180 ascites; Cisplatin in saline, 8 mg/kg, run alongside the example of the same table line, listed as Positive Control) does the source give for N.N.[Cl][Pt][Cl] [Cisplatin, cis-[Pt(NH3)2C12], reference compound] here?
A: Its value is 0 of 6 and 4 of 6 and 1 of 6 and 6 of 6.

Q: What about the “Therapeutic Index” value [2] of the same molecule?
A: The value was 2.2-2.5.

Q: Which results are given for OCc1ccc[n+]([Au-]([Cl])([Cl])[Cl])c1 [Ex. 6]?
A: Survivors (S 180 ascites; Dose 10 mg/kg): 0 of 6; Survivors (S 180 ascites; Dose 20 mg/kg): 1 of 6; Survivors (S 180 ascites; Dose 40 mg/kg): 3 of 6; Survivors (S 180 ascites; Dose 80 mg/kg): 0 of 6; Survivors (S 180 ascites; Dose 160 mg/kg): 0 of 6; Survivors (S 180 ascites; Dose 320 mg/kg): 0 of 6; selectivity ratio [1]: 2.1; LD50 [1]: 90 mg/kg

Q: For O=C(O)c1ccc[n+]([Au-]([Br])([Br])[Br])c1 [Ex. 10], which Survivors (S 180 ascites; Dose 10 mg/kg) is on record?
A: Its Survivors is 0 of 6.

Q: What about the Survivors (S 180 ascites; Dose 20 mg/kg) of the same molecule?
A: The Survivors was 0 of 6.

Q: And the Survivors (S 180 ascites; Dose 40 mg/kg)?
A: Its Survivors is 2 of 6.

Q: And the Survivors (S 180 ascites; Dose 80 mg/kg)?
A: Its Survivors is 0 of 6.

Q: What about the Survivors (S 180 ascites; Dose 160 mg/kg) of the same molecule?
A: The Survivors was 0 of 6.

Q: What about the Survivors (S 180 ascites; Dose 320 mg/kg) of the same molecule?
A: Its Survivors is 0 of 6.

Q: What about the solubility (Solubility) of the same molecule?
A: Its solubility is 12.8 mg/mL.

Q: What does the source list for O=C(O)c1ccc[n+]([Au-]([Cl])([Cl])[Cl])c1 [Ex. 1, Trichloro(Nicotinic Acid)Gold(III)]?
A: Survivors (S 180 ascites; Dose 10 mg/kg): 0 of 6; Survivors (S 180 ascites; Dose 20 mg/kg): 3 of 6; Survivors (S 180 ascites; Dose 40 mg/kg): 3 of 6; Survivors (S 180 ascites; Dose 80 mg/kg): 4 of 6; Survivors (S 180 ascites; Dose 160 mg/kg): 0 of 6; Survivors (S 180 ascites; Dose 320 mg/kg): 0 of 6; selectivity ratio [1]: 5.8; LD50 [1]: 180 mg/kg; solubility (Solubility): 12.8 mg/mL

Q: Which results are given for Oc1ccc[n+]([Au-]([Cl])([Cl])[Cl])c1 [Ex. 5]?
A: Survivors (S 180 ascites; Dose 10 mg/kg): 0 of 6; Survivors (S 180 ascites; Dose 20 mg/kg): 2 of 6; Survivors (S 180 ascites; Dose 40 mg/kg): 3 of 6; Survivors (S 180 ascites; Dose 80 mg/kg): 2 of 6; Survivors (S 180 ascites; Dose 160 mg/kg): 0 of 6; Survivors (S 180 ascites; Dose 320 mg/kg): 0 of 6

Q: Which results are given for [Cl][Au-]([Cl])([Cl])[n+]1cc[nH]c1 [Ex. 8, trichloro(imidazole)gold(III)]?
A: Survivors (S 180 ascites; Dose 5 mg/kg): 0 of 6; Survivors (S 180 ascites; Dose 10 mg/kg): 0 of 6; Survivors (S 180 ascites; Dose 20 mg/kg): 1 of 6; Survivors (S 180 ascites; Dose 40 mg/kg): 0 of 6; Survivors (S 180 ascites; Dose 80 mg/kg): 1 of 6; Survivors (S 180 ascites; Dose 160 mg/kg): 2 of 6
